Laboratory results as given in publication PMC6440969, “Functional and structural similarities of D7 proteins in the independently-evolved salivary secretions of sand flies and mosquitoes” (Scientific Reports, 2019).
pKd: −log10 of the molar value. Like-named read-outs stand apart in the source and are kept apart here.

How the values were obtained:
P. duboscqi ABI15936 = molecular target: T1, P. duboscqi ABI15936 (Phlebotomus duboscqi, UniProt Q06KA2); test: biochemical; type: binding; conditions: for affinities (1/Ka): range printed for both proteins (AGE83092 and ABI15936) together; for binding of biogenic amines: ITC (Fig. S1)
T1 construct: made in house; host or cells: E. coli BL21 (DE3) pLysS
T1 sequence (Q06KA2 20-249 limits assumed): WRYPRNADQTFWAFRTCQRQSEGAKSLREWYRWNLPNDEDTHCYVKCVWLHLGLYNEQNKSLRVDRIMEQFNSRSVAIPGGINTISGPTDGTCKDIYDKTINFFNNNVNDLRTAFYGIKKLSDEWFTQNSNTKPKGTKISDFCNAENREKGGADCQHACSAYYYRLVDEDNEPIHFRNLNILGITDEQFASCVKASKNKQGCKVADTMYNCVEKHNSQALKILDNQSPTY
Description: (§1) For cysteinyl leukotriene experiments, the calorimeter cell was filled with P. papatasi D7 protein AGE83092 (A–C) or P. duboscqi ABI15936 (E–G) at 2 μM in Tris-buffered saline. The syringe contained 20 μM LTC4 (A,E), LTD4 (B,F) and LTE4 (C,G) in the same buffer. Injections (10 µL) were spaced at 300 s intervals. […] The syringe concentration was 50 µM AGE83092 and 100 µM for ABI15936. Heats were recorded on a VP-ITC MicroCalorimeter and data were fit using a single binding site model on the MicroCal software package (Origin 7) for calculation of thermodynamic parameters. Titration curves are representative of at least 3 measurements.
Figure 7 Binding pocket interactions in ABI15936. (A) Stereoview of bound Triton X-100 with weighted omit electron density (Fo-Fc) contoured at 3 σ covering the ligand. Carbon atoms are colored green and oxygen atoms are colored red (B). […] In the protein, carbon is colored light grey, oxygen is colored red and nitrogen is colored blue. […] The refined position is shown in green and the rotated position in white.
(§2) Proteins were diluted in 20 mM tris pH 7.4, 150 mM NaCl and degassed. […] These were sonicated for 10 minutes in a water bath sonicator and degassed before use. Biogenic amines were dissolved in the same buffer and degassed. Heats were measured with a MicroCal VP-ITC calorimeter (Malvern, United Kingdom) using 10 μl ligand injections over periods of 20 seconds with 300 seconds spacing the injections. The measured heats were integrated and fit to a single-site binding model using the MicroCal Origin software.

[1] = molecular target: T2, P. papatasi D7 protein AGE83092 (Phlebotomus papatasi, UniProt M1JMQ7); test: biochemical; type: binding
T2 construct: made in house; host or cells: E. coli BL21 (DE3) pLysS
T2 sequence (M1JMQ7 20-254 limits assumed): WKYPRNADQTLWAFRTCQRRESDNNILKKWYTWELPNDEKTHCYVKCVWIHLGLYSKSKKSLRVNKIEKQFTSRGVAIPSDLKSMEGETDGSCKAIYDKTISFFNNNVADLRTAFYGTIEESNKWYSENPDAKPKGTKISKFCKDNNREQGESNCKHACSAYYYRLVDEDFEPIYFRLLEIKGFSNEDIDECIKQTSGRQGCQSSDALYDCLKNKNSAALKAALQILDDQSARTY
Description: as §1, §2

AeD7 = tested on: AeD7; design: method as in PMID 19234127, PMID 21152418; conditions: cited from earlier work
AnStD7L1 = conditions: cited from earlier work
[2] = ITC, single binding site model, Tris-buffered saline, protein 2 μM (10 µM for U46619), protein prepared with Triton X-100
[3] = ITC, single binding site model, protein prepared with Triton X-100
[4] = ITC, protein prepared without Triton X-100

CCCCC/C=C\C\C=C/C=C/C=C/[C@@H](SC[C@H](NC(=O)CC[C@H](N)C(=O)O)C(=O)NCC(=O)O)[C@@H](O)CCCC(=O)O [LTC4]
Ka (P. duboscqi ABI15936; [2]): 3.1e+08 M⁻¹ | ΔH (P. duboscqi ABI15936; [3]): -8.6 kcal/mol | Ka (P. duboscqi ABI15936; [4]): 2.2e+08 M⁻¹ | ΔH (P. duboscqi ABI15936; [4]): -10.0 kcal/mol | affinities (1/Ka) (P. duboscqi ABI15936; ITC): 2 to 6 nM | Ka [1]: 1.7e+08 M⁻¹ | affinities (1/Ka) [1]: 2 to 6 nM | ΔH ([1]; ITC, single binding site model): -10.3 kcal/mol

CCCCC/C=C\C\C=C/C=C/C=C/[C@@H](SC[C@H](N)C(=O)NCC(=O)O)[C@@H](O)CCCC(=O)O [LTD4]
ΔH (P. duboscqi ABI15936; [3]): -8.9 kcal/mol | pKd (P. duboscqi ABI15936; Ka): 8.38 | pKd (P. duboscqi ABI15936; affinities (1/Ka)): 8.22 to 8.70 | ΔH ([1]; ITC, single binding site model): -10.2 kcal/mol | pKd ([1]; Ka): 8.76 | pKd ([1]; affinities (1/Ka)): 8.22 to 8.70

CCCCC/C=C\C\C=C/C=C/C=C/[C@@H](SC[C@H](N)C(=O)O)[C@@H](O)CCCC(=O)O [LTE4]
Ka (P. duboscqi ABI15936; [2]): 3.4e+07 M⁻¹ | ΔH (P. duboscqi ABI15936; [3]): -7.0 kcal/mol | affinities (1/Ka) (P. duboscqi ABI15936; ITC): 16 to 29 nM | Ka [1]: 6.3e+07 M⁻¹ | ΔH ([1]; ITC, single binding site model): -11.3 kcal/mol

CCCCC[C@H](O)/C=C/[C@@H]1[C@@H](C/C=C\CCCC(=O)O)[C@H]2CO[C@@H]1C2 [U46619]
affinity for AeD7 (AeD7): no affinity | Ka (P. duboscqi ABI15936; [2]): 780000 M⁻¹ | ΔH (P. duboscqi ABI15936; [3]): -11.5 kcal/mol | pKd (P. duboscqi ABI15936; ITC, read-out: affinity constant): ~5.89 | binding to AnStD7L1 (AnStD7L1): bound | Ka [1]: 1.33e+06 M⁻¹ | ΔH [1]: -8.5 kcal/mol | pKd ([1]; read-out: affinity constant): ~6.12

NCCc1c[nH]cn1 [histamine]
binding of biogenic amines (P. duboscqi ABI15936): did not bind | binding of biogenic amines [1]: did not bind

NCCc1c[nH]c2ccc(O)cc12 [serotonin]
binding of biogenic amines (P. duboscqi ABI15936): did not bind | binding of biogenic amines ([1]; ITC (Fig. S1)): did not bind
